From patent publication US20220305003A1, “METHODS OF TREATING CANCER WITH AN INHIBITOR OF ZNF827” (CHILDREN'S MEDICAL RESEARCH INSTITUTE, priority 2019, published 2022) come the findings set out here.

In one data set the test system is HT1080 cells. Kind of data set: Sister chromatid exchange (SCE) assay in HT1080. The format is cell-based. The conditions noted are these: 72 hr siRNA knockdown of ZNF827, topotecan 2 μg/mL 1 hr. As to the method:
For the SCE assay, 20-25% confluent cells were cultured in fresh media supplemented with 7.5 μM […] (BrdU) and 2.5 μM BrdC (BrdU:BrdC 3:1 ratio; Sigma-Aldrich) for 32-48 hours depending on the mitotic index of the cell line. Cell cultures were treated with 100 ng/mL colcemid for the last 4 hours of incubation to accumulate mitotic cells. Cells were harvested by trypsinisation and centrifugation, and then incubated in hypotonic buffer for 10 minutes at 37° C. Swollen cells were fixed by gradually adding 1 mL of fresh ice-cold fixative (methanol/acetic acid 3:1), mixing by inversion and incubating on ice for 5 minutes. Cells were then collected by centrifugation at 1200 rpm for 8 minutes. 10 mL ice cold fixative was added to resuspend the cells followed by 5 minutes incubation on ice and centrifugation at 1200 rpm for 8 minutes. This fixing step was repeated another two times. Fixed cells were then resuspended in 500-1000 μL of ice-cold fixative, and dropped onto clean, dry microscope slides (HDS Surefrost, 50-100 μL cell solution per slide). To drop chromosomes, a clean dry slide was held over a 75° C. water bath, and the cell solution was dropped from a pipette onto the slide, which was quickly flipped and held close to the surface of the water bath for 5 seconds. […]

For another data set, the target named is T1, ZNF827 ZnF1-3 deleted (Homo sapiens, UniProt Q17R98 SEQ:4-997).
T1 chain: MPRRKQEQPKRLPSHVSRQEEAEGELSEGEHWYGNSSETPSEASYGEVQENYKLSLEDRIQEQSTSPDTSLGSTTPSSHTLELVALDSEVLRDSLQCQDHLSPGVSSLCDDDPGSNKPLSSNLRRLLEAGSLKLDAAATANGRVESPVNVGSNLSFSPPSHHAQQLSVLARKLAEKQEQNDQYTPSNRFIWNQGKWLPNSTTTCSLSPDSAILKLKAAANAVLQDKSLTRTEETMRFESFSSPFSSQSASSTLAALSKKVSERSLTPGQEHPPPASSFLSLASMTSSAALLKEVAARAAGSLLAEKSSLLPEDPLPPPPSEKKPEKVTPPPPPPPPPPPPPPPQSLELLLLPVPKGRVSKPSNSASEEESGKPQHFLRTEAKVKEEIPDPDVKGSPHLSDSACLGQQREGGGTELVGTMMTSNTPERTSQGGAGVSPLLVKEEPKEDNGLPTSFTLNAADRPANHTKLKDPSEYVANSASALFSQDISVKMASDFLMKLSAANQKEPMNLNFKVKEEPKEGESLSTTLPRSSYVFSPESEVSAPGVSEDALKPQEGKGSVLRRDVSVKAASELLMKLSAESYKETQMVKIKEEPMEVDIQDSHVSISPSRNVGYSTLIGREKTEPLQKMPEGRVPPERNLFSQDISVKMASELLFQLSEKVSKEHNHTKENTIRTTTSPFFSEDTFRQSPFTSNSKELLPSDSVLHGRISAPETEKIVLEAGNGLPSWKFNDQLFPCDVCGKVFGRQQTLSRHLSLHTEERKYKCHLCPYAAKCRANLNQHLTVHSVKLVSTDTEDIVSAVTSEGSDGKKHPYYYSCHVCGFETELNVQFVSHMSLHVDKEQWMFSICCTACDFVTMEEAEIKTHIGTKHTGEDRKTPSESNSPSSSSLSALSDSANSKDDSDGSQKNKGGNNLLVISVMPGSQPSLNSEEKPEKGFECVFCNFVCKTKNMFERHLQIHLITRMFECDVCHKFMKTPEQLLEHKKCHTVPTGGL
Kind of data set: EMSA; interaction abolished. Particulars: tags: HaloTag (pHTN), expressed in HEK 293T, tag removed by HaloTEV cleavage; label: 32P (gamma). As to the method: Purified proteins were quantified using a BCA assay using the Pierce™ BCA Protein Assay Kit according to the manufacturer's instructions. Equal amounts of purified proteins were incubated in binding buffer (20 mM HEPES-KOH, pH7.9, 100 mM KCl, 0.8 mM ZnCl₂, 0.2 mM EDTA, 5% glycerol, 0.5 mM DTT and 0.5 mM PMSF) with 6.25 μg/mL poly (dI:dC) and 50 ng/μL BSA on ice for 20 minutes. ˜0.12 nM (˜2.5 fmol) γ-³²P labelled DNA oligonucleotide (see Table 3) probes were added to samples and incubated on ice for another 30 minutes. Binding reactions were loaded onto an 8% native acrylamide/bisacrylamide (19:1, Biorad) gel pre-run at 100V in 0.5× TB buffer (89 mM Tris, 89 mM boric acid) for 20 minutes. Gels were electrophoresed at 150 V for 150 minutes at 4° C., dried at 65° C. for 45 minutes, and then exposed to a Phosphor screen overnight. Gel images were obtained by scanning the screens with a Typhoon FLA9500 Imager (GE Life Sciences).

For “siZNF827: Stealth RNAi siRNA ZNF827HSS135819 duplex oligoribonucleotides (Invitrogen), SEQ ID NO: 12 and 13 (chain 1 GGGCAGUCUUCUGGCUGAGAAAUCA; chain 2 UGAUUUCUCAGCCAGAAGACUGCCC; listed as RNA, further chemistry not given here)”, in the data set on HT1080 cells, the “sister chromatid exchanges (SCEs)” value is reported as “suppression of SCEs”.

As for TTAGGGTTAGGGTTAGGG (ssDNA) [ss telomeric G rich oligo], in the data set with ZNF827 ZnF1-3 deleted, the binding result is recorded as “no binding”.
